Results: patent US20250230193A1, “CYCLIC COMPOUND HAVING SELECTIVE KRAS INHIBITORY EFFECT ON HRAS AND NRAS” (CHUGAI SEIYAKU KABUSHIKI KAISHA, priority 2022, published 2025)
Where a SMILES comes first, the peptide text is derived from it. Bridges are numbered along the chain shown (N, C = ends). [ ]: non-standard residue; d: D form. The star is where a group is joined. hPhe(3-Cl-4-CF3) = N[C@@H](CCc1ccc(C(F)(F)F)c(Cl)c1)C(=O)O; NPrPhe(4-CF3) = CCCN[C@@H](Cc1ccc(C(F)(F)F)cc1)C(=O)O; NMeGly(cPent) = CN[C@H](C(=O)O)C1CCCC1; NMeI = CC[C@H](C)[C@H](NC)C(=O)O; NMeD = CN[C@@H](CC(=O)O)C(=O)O; Ac4c(3-oxa) = NC1(C(=O)O)COC1; NMeL = CN[C@@H](CC(C)C)C(=O)O; NMeAbu = CC[C@H](NC)C(=O)O; NMeS = CN[C@@H](CO)C(=O)O; Morpholide = C1CN(*)CCO1; NMeA = CN[C@@H](C)C(=O)O; Ac5c = NC1(C(=O)O)CCCC1; Ac4c = NC1(C(=O)O)CCC1; Sar = CNCC(=O)O

Experiments:
[1] = target: GDP-bound HRAS wild-type protein (Homo sapiens, UniProt P01112); test: Binding to HRAS by surface plasmon resonance (SPR), Single Cycle Kinetics; conditions: KD ratio, GDP-bound HRAS wild-type vs GDP-bound KRAS wild-type, SPR
[2] = target: GDP-bound NRAS wild-type protein (Homo sapiens, UniProt P01111); test: Binding to NRAS by surface plasmon resonance (SPR), Single Cycle Kinetics; conditions: KD ratio, GDP-bound NRAS wild-type vs GDP-bound KRAS wild-type, SPR
GDP-bound NRAS wild-type protein, sequence (P01111 whole entry): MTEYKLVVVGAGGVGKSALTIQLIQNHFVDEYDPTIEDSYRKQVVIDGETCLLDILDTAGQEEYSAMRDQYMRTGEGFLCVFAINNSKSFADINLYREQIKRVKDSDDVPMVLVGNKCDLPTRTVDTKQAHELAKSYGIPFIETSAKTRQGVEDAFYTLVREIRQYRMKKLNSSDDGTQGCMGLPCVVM

GDP-bound HRAS wild-type protein, sequence (P01112 whole entry): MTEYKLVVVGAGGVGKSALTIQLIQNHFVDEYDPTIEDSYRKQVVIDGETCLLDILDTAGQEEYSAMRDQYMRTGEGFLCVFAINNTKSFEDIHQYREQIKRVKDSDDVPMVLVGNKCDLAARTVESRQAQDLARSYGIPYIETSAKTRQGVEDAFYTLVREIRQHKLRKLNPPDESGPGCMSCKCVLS

CCO[C@@H]1C[C@H]2C(=O)NC3(CCC3)C(=O)N(C)[C@@H](C3CCCC3)C(=O)N(C)[C@H](C(=O)N(C)CC)CC(=O)N(C)[C@@H](CC(C)C)C(=O)N[C@@H]([C@@H](C)CC)C(=O)N(C)CC(=O)N(C)[C@H]3C/C=C\CCN(C3=O)[C@@H](Cc3ccc(C)cc3)C(=O)N(C)CC(=O)N[C@@H](CCc3ccc(C(F)(F)F)c(OC)c3)C(=O)N2C1 [PP1910]
HRAS/KRAS (ratio of KD value for HRAS to KD value for KRAS) [1]: B (a compound having 3 or more and less than 10 is denoted as B) | NRAS/KRAS (ratio of KD value for NRAS to KD value for KRAS) [2]: A (a compound having 10 or more and less than 20 is denoted as A)

CC[C@H](C)[C@@H]1NC(=O)[C@H](CC(F)F)N(C)C(=O)C[C@@H](C(=O)N(C)CC)N(C)C(=O)[C@H](C2CCCC2)N(C)C(=O)C2(CC(C)(C)C2)NC(=O)[C@@H]2C[C@H](C)CN2C(=O)[C@H](CCc2ccc(C(F)(F)F)c(Cl)c2)NC(=O)CN(C)C(=O)[C@H](Cc2ccc(C)cc2)N2CC/C=C\C[C@@H](C2=O)N(C)C(=O)CN(C)C1=O [PP1911]
HRAS/KRAS (ratio of KD value for HRAS to KD value for KRAS) [1]: A (a compound having 10 or more and less than 20 is denoted as A) | NRAS/KRAS (ratio of KD value for NRAS to KD value for KRAS) [2]: A (a compound having 10 or more and less than 20 is denoted as A)

CCO[C@@H]1C[C@H]2C(=O)NC3(CC(C)(C)C3)C(=O)N(CC)[C@@H](C3CCCC3)C(=O)N(C)[C@H](C(=O)N(C)C)CC(=O)N(C)[C@@H](CC)C(=O)N[C@@H]([C@@H](C)CC)C(=O)N(C)CC(=O)N(C)[C@H]3C/C=C\CCN(C3=O)[C@@H](Cc3ccc(C(F)(F)F)cc3)C(=O)N(C)CC(=O)N[C@@H](CCc3cc(F)c(C(F)(F)F)c(F)c3)C(=O)N2C1 [PP1913]
HRAS/KRAS (ratio of KD value for HRAS to KD value for KRAS) [1]: A (a compound having 10 or more and less than 20 is denoted as A) | NRAS/KRAS (ratio of KD value for NRAS to KD value for KRAS) [2]: A (a compound having 10 or more and less than 20 is denoted as A)

CCO[C@@H]1C[C@H]2C(=O)NC3(CC(C)(C)C3)C(=O)N(C)[C@@H](C3CCCC3)C(=O)N(C)[C@H](C(=O)N(C)C)CC(=O)N3CCCCC[C@H]3C(=O)N[C@@H]([C@@H](C)CC)C(=O)N(C)CC(=O)N(C)[C@H]3C/C=C\CCN(C3=O)[C@@H](Cc3ccc(C(F)(F)F)cc3)C(=O)N(C)CC(=O)N[C@@H](CCc3cc(F)c(C(F)(F)F)c(F)c3)C(=O)N2C1 [PP1915]
HRAS/KRAS (ratio of KD value for HRAS to KD value for KRAS) [1]: A (a compound having 10 or more and less than 20 is denoted as A) | NRAS/KRAS (ratio of KD value for NRAS to KD value for KRAS) [2]: A (a compound having 10 or more and less than 20 is denoted as A)

CCCN1C(=O)CN(C)C(=O)CN(C)C(=O)[C@H]([C@@H](C)CC)NC(=O)[C@H](CC(C)C)N(C)C(=O)C[C@@H](C(=O)N2CCOCC2)N(C)C(=O)[C@H](C2CCCC2)N(C)C(=O)C2(CCC2)NC(=O)[C@H](C)N(C)C(=O)[C@H](CCc2ccc(C(F)(F)F)c(Cl)c2)NC(=O)CN(C)C(=O)[C@@H]1Cc1ccc(C(F)(F)F)cc1 [PP1916] ([NMeL]I[Sar][Sar][NPrPhe(4-CF3)][Sar][hPhe(3-Cl-4-CF3)][NMeA][Ac4c][NMeGly(cPent)][NMeD]-Morpholide; lactam N-11)
HRAS/KRAS (ratio of KD value for HRAS to KD value for KRAS) [1]: C (A compound having a KD ratio of 0.1 or more and less than 3 is denoted as C) | NRAS/KRAS (ratio of KD value for NRAS to KD value for KRAS) [2]: B (a compound having 3 or more and less than 10 is denoted as B)

CCCN(C)C(=O)[C@@H]1CC(=O)N(C)[C@@H](CC(C)C)C(=O)N[C@@H]([C@@H](C)OC)C(=O)N(C)CC(=O)N(C)[C@H]2C/C=C\CCN(C2=O)[C@@H](Cc2ccc(C(F)(F)F)cc2)C(=O)N(C)CC(=O)N[C@@H](CCc2cc(F)c(C(F)(F)F)c(F)c2)C(=O)N2C[C@H](OCC)C[C@H]2C(=O)NC2(CC(C)(C)C2)C(=O)N(C)[C@@H](C2CCCC2)C(=O)N1C [PP1917]
HRAS/KRAS (ratio of KD value for HRAS to KD value for KRAS) [1]: A (a compound having 10 or more and less than 20 is denoted as A) | NRAS/KRAS (ratio of KD value for NRAS to KD value for KRAS) [2]: A (a compound having 10 or more and less than 20 is denoted as A)

CCCN1C(=O)CN(C)C(=O)CN(C)C(=O)[C@H]([C@@H](C)CC)NC(=O)[C@H](CC(C)C)N(C)C(=O)C[C@@H](C(=O)N2CCOCC2)N(C)C(=O)[C@H](C2CCCC2)N(C)C(=O)C2(CCC2)NC(=O)[C@H](CC)N(C)C(=O)[C@H](CCc2ccc(C(F)(F)F)c(Cl)c2)NC(=O)CN(C)C(=O)[C@@H]1Cc1ccc(C(F)(F)F)cc1 [PP1918] ([NMeL]I[Sar][Sar][NPrPhe(4-CF3)][Sar][hPhe(3-Cl-4-CF3)][NMeAbu][Ac4c][NMeGly(cPent)][NMeD]-Morpholide; lactam N-11)
HRAS/KRAS (ratio of KD value for HRAS to KD value for KRAS) [1]: C (A compound having a KD ratio of 0.1 or more and less than 3 is denoted as C) | NRAS/KRAS (ratio of KD value for NRAS to KD value for KRAS) [2]: B (a compound having 3 or more and less than 10 is denoted as B)

CCO[C@@H]1C[C@H]2C(=O)NC3(CC(C)(C)C3)C(=O)N(C)[C@@H](C3CCCC3)C(=O)N(C)[C@H](C(=O)N(C)CC)CC(=O)N(C)[C@@H](CC(C)C)C(=O)N[C@@H]([C@@H](C)OCC)C(=O)N(C)CC(=O)N(C)[C@H]3C/C=C\CCN(C3=O)[C@@H](Cc3ccc(C(F)(F)F)cc3)C(=O)N(C)CC(=O)N[C@@H](CCc3cc(F)c(C(F)(F)F)c(F)c3)C(=O)N2C1 [PP1919]
HRAS/KRAS (ratio of KD value for HRAS to KD value for KRAS) [1]: A (a compound having 10 or more and less than 20 is denoted as A) | NRAS/KRAS (ratio of KD value for NRAS to KD value for KRAS) [2]: A (a compound having 10 or more and less than 20 is denoted as A)

CCCN1C(=O)CN(C)C(=O)CN(C)C(=O)[C@H]([C@@H](C)CC)NC(=O)[C@H](CC(C)C)N(C)C(=O)C[C@@H](C(=O)N2CCOCC2)N(C)C(=O)[C@H](C2CCCC2)N(C)C(=O)C2(CCCC2)NC(=O)[C@H](COC)N(C)C(=O)[C@H](CCc2ccc(C(F)(F)F)c(Cl)c2)NC(=O)CN(C)C(=O)[C@@H]1Cc1ccc(C(F)(F)F)cc1 [PP1920] ([NMeL]I[Sar][Sar][NPrPhe(4-CF3)][Sar][hPhe(3-Cl-4-CF3)][NMeS](Me)[Ac5c][NMeGly(cPent)][NMeD]-Morpholide; lactam N-11)
HRAS/KRAS (ratio of KD value for HRAS to KD value for KRAS) [1]: C (A compound having a KD ratio of 0.1 or more and less than 3 is denoted as C) | NRAS/KRAS (ratio of KD value for NRAS to KD value for KRAS) [2]: B (a compound having 3 or more and less than 10 is denoted as B)

CCCO[C@H](C)[C@@H]1NC(=O)[C@H](CC(C)C)N(C)C(=O)C[C@@H](C(=O)N(C)C)N(C)C(=O)[C@H](C2CCCC2)N(C)C(=O)C2(CC(C)(C)C2)NC(=O)[C@@H]2C[C@@H](OCC)CN2C(=O)[C@H](CCc2cc(F)c(C(F)(F)F)c(F)c2)NC(=O)CN(C)C(=O)[C@H](Cc2ccc(C(F)(F)F)cc2)N2CC/C=C\C[C@@H](C2=O)N(C)C(=O)CN(C)C1=O [PP1921]
HRAS/KRAS (ratio of KD value for HRAS to KD value for KRAS) [1]: A (a compound having 10 or more and less than 20 is denoted as A) | NRAS/KRAS (ratio of KD value for NRAS to KD value for KRAS) [2]: A (a compound having 10 or more and less than 20 is denoted as A)

CCCN1C(=O)CN(C)C(=O)CN(C)C(=O)[C@H]([C@@H](C)CC)NC(=O)[C@H](CC(C)C)N(C)C(=O)C[C@@H](C(=O)N2CCOCC2)N(C)C(=O)[C@H](C2CCCC2)N(C)C(=O)C2(COC2)NC(=O)[C@@H]2CCCN2C(=O)[C@H](CCc2ccc(C(F)(F)F)c(Cl)c2)NC(=O)CN(C)C(=O)[C@@H]1Cc1ccc(C(F)(F)F)cc1 [PP1922] ([NMeL]I[Sar][Sar][NPrPhe(4-CF3)][Sar][hPhe(3-Cl-4-CF3)]P[Ac4c(3-oxa)][NMeGly(cPent)][NMeD]-Morpholide; lactam N-11)
HRAS/KRAS (ratio of KD value for HRAS to KD value for KRAS) [1]: C (A compound having a KD ratio of 0.1 or more and less than 3 is denoted as C) | NRAS/KRAS (ratio of KD value for NRAS to KD value for KRAS) [2]: B (a compound having 3 or more and less than 10 is denoted as B)

CCCN(C)C(=O)[C@@H]1CC(=O)N(C)[C@@H](CC(C)C)C(=O)N[C@@H](C2CCOCC2)C(=O)N(C)CC(=O)N(C)[C@H]2C/C=C\CCN(C2=O)[C@@H](Cc2ccc(C(F)(F)F)cc2)C(=O)N(C)CC(=O)N[C@@H](CCc2cc(F)c(C(F)(F)F)c(F)c2)C(=O)N2C[C@H](OCC)C[C@H]2C(=O)NC2(CC(C)(C)C2)C(=O)N(C)[C@@H](C2CCCC2)C(=O)N1C [PP1923]
HRAS/KRAS (ratio of KD value for HRAS to KD value for KRAS) [1]: A (a compound having 10 or more and less than 20 is denoted as A) | NRAS/KRAS (ratio of KD value for NRAS to KD value for KRAS) [2]: A (a compound having 10 or more and less than 20 is denoted as A)

CCC[C@H]1C(=O)N[C@@H]([C@@H](C)CC)C(=O)N2CC[C@H]2C(=O)N(C)[C@H]2C/C=C\CCN(C2=O)[C@@H](Cc2ccc(C(F)(F)F)cc2)C(=O)N(C)CC(=O)N[C@@H](CCc2cc(F)c(C(F)(F)F)c(F)c2)C(=O)N2C[C@H](OCC)C[C@H]2C(=O)NC2(CC(C)(C)C2)C(=O)N(C)[C@@H](C2CCCC2)C(=O)N(C)[C@H](C(=O)N(C)C)CC(=O)N1C [PP1925]
HRAS/KRAS (ratio of KD value for HRAS to KD value for KRAS) [1]: A (a compound having 10 or more and less than 20 is denoted as A) | NRAS/KRAS (ratio of KD value for NRAS to KD value for KRAS) [2]: A (a compound having 10 or more and less than 20 is denoted as A)

CCCN1C(=O)CN(C)C(=O)CN(C)C(=O)[C@H]([C@@H](C)CC)NC(=O)[C@H](CC(C)C)N(C)C(=O)C[C@@H](C(=O)N2CCOCC2)N(C)C(=O)[C@H]([C@@H](C)CC)N(C)C(=O)C2(CCCC2)NC(=O)[C@@H]2CCCN2C(=O)[C@H](CCc2ccc(C(F)(F)F)c(Cl)c2)NC(=O)CN(C)C(=O)[C@@H]1Cc1ccc(C(F)(F)F)cc1 [PP1926] ([NMeL]I[Sar][Sar][NPrPhe(4-CF3)][Sar][hPhe(3-Cl-4-CF3)]P[Ac5c][NMeI][NMeD]-Morpholide; lactam N-11)
HRAS/KRAS (ratio of KD value for HRAS to KD value for KRAS) [1]: B (a compound having 3 or more and less than 10 is denoted as B) | NRAS/KRAS (ratio of KD value for NRAS to KD value for KRAS) [2]: B (a compound having 3 or more and less than 10 is denoted as B)
